Results as given in paper PMC9788509, “Arginine Homopeptide of 11 Residues as a Model of Cell-Penetrating Peptides in the Interaction with Bacterial Membranes” (Membranes, 2022).
Values joined by “and” are separate entries in the source; they are usually repeats but may differ in a detail not shown here. Equal values may be shown once. No end group written: not given here.

Assays:
Escherichia coli (ML35) = assay type: cell-based; details: E. coli ML35; 1 × 10^7 CFU/mL; 1% TSB, 10 mM Hepes; 10, 20 and 30 μM peptide, 1 h at 37 °C; serial dilution, 18 h at 37 °C in complete TSB; turbidity; duplicate
Description: (§1) The strains used, Staphylococcus aureus (ATCC 25923) and Escherichia coli (ML35), were obtained from the Public Health Institute of Chile (ISP).
(§2) To determine the antibacterial activity of the peptides, a microplate dilution test was performed. The necessary calculations were completed with a bacterial concentration of 1 × 10^7 CFU/mL and the cells were exposed to 50 µL of Tryptic soy broth (TSB) with 1%, 10 mM of Hepes buffer and 10, 20 and 30 μM of peptide for 1 h at 37 °C. Finally, a serial dilution was performed and incubated for 18 h at 37 °C in complete TSB, and the minimum bactericidal concentration (MCB) was determined depending on the turbidity of the plate. All experiments were completed in duplicate. A synthetic peptide of sequence KKWRWWLKALAKK from the venom of the Bothrops asper snake was used as a positive control for growth inhibition.

[1] = tested on: Staphylococcus aureus (ATCC 25923); assay type: cell-based; details: S. aureus ATCC 25923; 1 × 10^7 CFU/mL; 1% TSB, 10 mM Hepes; 10, 20 and 30 μM peptide, 1 h at 37 °C; serial dilution, 18 h at 37 °C in complete TSB; turbidity; duplicate
Description: as §1, §2

C[C@H](N)C(=O)N[C@@H](CCCNC(=N)N)C(=O)N[C@@H](CCCNC(=N)N)C(=O)N[C@@H](CCCNC(=N)N)C(=O)N[C@@H](CCCNC(=N)N)C(=O)N[C@@H](CCCNC(=N)N)C(=O)N[C@@H](CCCNC(=N)N)C(=O)N[C@@H](CCCNC(=N)N)C(=O)N[C@@H](CCCNC(=N)N)C(=O)N[C@@H](CCCNC(=N)N)C(=O)N[C@@H](CCCNC(=N)N)C(N)=O [A1]
Minimum Bactericidal Concentration (Escherichia coli (ML35)): >30 µM

CC(C)C[C@H](N)C(=O)N[C@@H](CCCNC(=N)N)C(=O)N[C@@H](CCCNC(=N)N)C(=O)N[C@@H](CCCNC(=N)N)C(=O)N[C@@H](CCCNC(=N)N)C(=O)N[C@@H](CCCNC(=N)N)C(=O)N[C@@H](CCCNC(=N)N)C(=O)N[C@@H](CCCNC(=N)N)C(=O)N[C@@H](CCCNC(=N)N)C(=O)N[C@@H](CCCNC(=N)N)C(=O)N[C@@H](CCCNC(=N)N)C(N)=O [L1]
Minimum Bactericidal Concentration (Escherichia coli (ML35)): 13 µM
Minimum Bactericidal Concentration [1]: 9 µM

CC(C)C[C@H](NC(=O)[C@H](CCCNC(=N)N)NC(=O)[C@H](CCCNC(=N)N)NC(=O)[C@H](CCCNC(=N)N)NC(=O)[C@H](CCCNC(=N)N)NC(=O)[C@H](CCCNC(=N)N)NC(=O)[C@H](CCCNC(=N)N)NC(=O)[C@H](CCCNC(=N)N)NC(=O)[C@H](CCCNC(=N)N)NC(=O)[C@H](CCCNC(=N)N)NC(=O)[C@@H](N)CCCNC(=N)N)C(N)=O [L11]
Minimum Bactericidal Concentration (Escherichia coli (ML35)): 30 µM

N=C(N)NCCC[C@H](NC(=O)[C@H](CCCNC(=N)N)NC(=O)[C@H](CCCNC(=N)N)NC(=O)[C@H](CCCNC(=N)N)NC(=O)[C@H](CCCNC(=N)N)NC(=O)[C@H](CCCNC(=N)N)NC(=O)[C@H](CCCNC(=N)N)NC(=O)[C@H](CCCNC(=N)N)NC(=O)[C@H](CCCNC(=N)N)NC(=O)[C@H](CCCNC(=N)N)NC(=O)[C@@H]1CCCN1)C(N)=O [P1]
Minimum Bactericidal Concentration (Escherichia coli (ML35)): 18 µM

N=C(N)NCCC[C@H](NC(=O)[C@H](CCCNC(=N)N)NC(=O)[C@H](CCCNC(=N)N)NC(=O)[C@H](CCCNC(=N)N)NC(=O)[C@H](CCCNC(=N)N)NC(=O)[C@@H](N)CCCNC(=N)N)C(=O)N[C@@H](CCCNC(=N)N)C(=O)N[C@@H](CCCNC(=N)N)C(=O)N[C@@H](CCCNC(=N)N)C(=O)N[C@@H](CCCNC(=N)N)C(=O)N1CCC[C@H]1C(N)=O [P11]
Minimum Bactericidal Concentration (Escherichia coli (ML35)): 30 µM
Minimum Bactericidal Concentration [1]: 18 µM

N=C(N)NCCC[C@H](NC(=O)[C@H](CCCNC(=N)N)NC(=O)[C@H](CCCNC(=N)N)NC(=O)[C@H](CCCNC(=N)N)NC(=O)[C@H](CCCNC(=N)N)NC(=O)[C@H](CCCNC(=N)N)NC(=O)[C@H](CCCNC(=N)N)NC(=O)[C@H](CCCNC(=N)N)NC(=O)[C@H](CCCNC(=N)N)NC(=O)[C@H](CCCNC(=N)N)NC(=O)[C@@H](N)CCCNC(=N)N)C(N)=O [R11]
Minimum Bactericidal Concentration (Escherichia coli (ML35)): 30 µM

N=C(N)NCCC[C@H](NC(=O)[C@H](CCCNC(=N)N)NC(=O)[C@H](CCCNC(=N)N)NC(=O)[C@H](CCCNC(=N)N)NC(=O)[C@H](CCCNC(=N)N)NC(=O)[C@H](CCCNC(=N)N)NC(=O)[C@H](CCCNC(=N)N)NC(=O)[C@H](CCCNC(=N)N)NC(=O)[C@H](CCCNC(=N)N)NC(=O)[C@H](CCCNC(=N)N)NC(=O)[C@@H](N)Cc1c[nH]c2ccccc12)C(N)=O [W1]
Minimum Bactericidal Concentration (Escherichia coli (ML35)): 30 µM
Minimum Bactericidal Concentration [1]: >30 µM

N=C(N)NCCC[C@H](NC(=O)[C@H](CCCNC(=N)N)NC(=O)[C@H](CCCNC(=N)N)NC(=O)[C@H](CCCNC(=N)N)NC(=O)[C@H](CCCNC(=N)N)NC(=O)[C@H](CCCNC(=N)N)NC(=O)[C@H](CCCNC(=N)N)NC(=O)[C@H](CCCNC(=N)N)NC(=O)[C@H](CCCNC(=N)N)NC(=O)[C@@H](N)CCCNC(=N)N)C(=O)N[C@@H](Cc1c[nH]c2ccccc12)C(N)=O [W11]
Minimum Bactericidal Concentration (Escherichia coli (ML35)): 20 µM
Minimum Bactericidal Concentration [1]: 10 µM

RARRRRRRRRR-NH2 [A2]
Minimum Bactericidal Concentration (Escherichia coli (ML35)): 18 µM

RLRRRRRRRRR-NH2 [L2]
Minimum Bactericidal Concentration (Escherichia coli (ML35)): 8 µM
Minimum Bactericidal Concentration [1]: 12 µM

RPRRRRRRRRR-NH2 [P2]
Minimum Bactericidal Concentration (Escherichia coli (ML35)): 30 µM

RRARRRRRRRR-NH2 [A3]
Minimum Bactericidal Concentration (Escherichia coli (ML35)): 10 µM

RRLRRRRRRRR-NH2 [L3]
Minimum Bactericidal Concentration (Escherichia coli (ML35)): 10 µM
Minimum Bactericidal Concentration [1]: 9 µM

RRPRRRRRRRR-NH2 [P3]
Minimum Bactericidal Concentration (Escherichia coli (ML35)): 28 µM
Minimum Bactericidal Concentration [1]: 8 µM

RRRARRRRRRR-NH2 [A4]
Minimum Bactericidal Concentration (Escherichia coli (ML35)): 26 µM
Percentage of polyproline II, Equation (2): 46% (2×) and 58% and 51%

RRRLRRRRRRR-NH2 [L4]
Minimum Bactericidal Concentration (Escherichia coli (ML35)): 20 µM
Minimum Bactericidal Concentration [1]: 9 µM

RRRPRRRRRRR-NH2 [P4]
Minimum Bactericidal Concentration (Escherichia coli (ML35)): >30 µM
Percentage of polyproline II, Equation (2): 49% (2×) and 29% and 41%

RRRRARRRRRR-NH2 [A5]
Minimum Bactericidal Concentration (Escherichia coli (ML35)): 20 µM

RRRRLRRRRRR-NH2 [L5]
Minimum Bactericidal Concentration (Escherichia coli (ML35)): 18 µM
Minimum Bactericidal Concentration [1]: 8 µM

RRRRPRRRRRR-NH2 [P5]
Minimum Bactericidal Concentration (Escherichia coli (ML35)): 28 µM
Minimum Bactericidal Concentration [1]: 8 µM

RRRRRARRRRR-NH2 [A6]
Minimum Bactericidal Concentration (Escherichia coli (ML35)): 26 µM

RRRRRLRRRRR-NH2 [L6]
Minimum Bactericidal Concentration (Escherichia coli (ML35)): >30 µM
Minimum Bactericidal Concentration [1]: 28 µM

RRRRRPRRRRR-NH2 [P6]
Minimum Bactericidal Concentration (Escherichia coli (ML35)): 18 µM

RRRRRRARRRR-NH2 [A7]
Minimum Bactericidal Concentration (Escherichia coli (ML35)): 20 µM

RRRRRRLRRRR-NH2 [L7]
Minimum Bactericidal Concentration (Escherichia coli (ML35)): 9 µM

RRRRRRPRRRR-NH2 [P7]
Minimum Bactericidal Concentration (Escherichia coli (ML35)): 10 µM
Minimum Bactericidal Concentration [1]: 7 µM

RRRRRRRARRR-NH2 [A8]
Minimum Bactericidal Concentration (Escherichia coli (ML35)): 30 µM

RRRRRRRLRRR-NH2 [L8]
Minimum Bactericidal Concentration (Escherichia coli (ML35)): 18 µM
Percentage of polyproline II, Equation (2): 51% and 65% (2×) and 62%

RRRRRRRRARR-NH2 [A9]
Minimum Bactericidal Concentration (Escherichia coli (ML35)): >30 µM

RRRRRRRRLRR-NH2 [L9]
Minimum Bactericidal Concentration (Escherichia coli (ML35)): 8 µM

RRRRRRRRRAR-NH2 [A10]
Minimum Bactericidal Concentration (Escherichia coli (ML35)): 10 µM
Minimum Bactericidal Concentration [1]: 6 µM

RRRRRRRRRLR-NH2 [L10]
Minimum Bactericidal Concentration (Escherichia coli (ML35)): 20 µM

RRRRRRRRRPR-NH2 [P10]
Minimum Bactericidal Concentration (Escherichia coli (ML35)): 30 µM
Minimum Bactericidal Concentration [1]: 30 µM

RRRRRRRRRWR-NH2 [W10]
Minimum Bactericidal Concentration (Escherichia coli (ML35)): 20 µM
Percentage of polyproline II, Equation (2): 46% and 68% and 49% (2×)

RRRRRRRRWRR-NH2 [W9]
Minimum Bactericidal Concentration (Escherichia coli (ML35)): 20 µM
Minimum Bactericidal Concentration [1]: 10 µM

RRRRRRRWRRR-NH2 [W8]
Minimum Bactericidal Concentration (Escherichia coli (ML35)): 20 µM
Minimum Bactericidal Concentration [1]: 20 µM

RRRRRRWRRRR-NH2 [W7]
Minimum Bactericidal Concentration (Escherichia coli (ML35)): 14 µM
Minimum Bactericidal Concentration [1]: 8 µM

RRRRRWRRRRR-NH2 [W6]
Minimum Bactericidal Concentration (Escherichia coli (ML35)): 15 µM
Minimum Bactericidal Concentration [1]: 20 µM

RRRRWRRRRRR-NH2 [W5]
Minimum Bactericidal Concentration (Escherichia coli (ML35)): 20 µM
Minimum Bactericidal Concentration [1]: 10 µM

RRRWRRRRRRR-NH2 [W4]
Minimum Bactericidal Concentration (Escherichia coli (ML35)): 20 µM
Minimum Bactericidal Concentration [1]: 20 µM

RRWRRRRRRRR-NH2 [W3]
Minimum Bactericidal Concentration (Escherichia coli (ML35)): >30 µM
Minimum Bactericidal Concentration [1]: 20 µM
